# Reference: patent publication US8952037B2, “Heteroaryloxycarbocyclyl compounds as PDE10 inhibitors” (Amgen Inc., priority 2010, dated 2015)
# Biological target: PDE10
# Experiment: MPDE10A7 enzyme inhibition, IMAP TR-FRET assay
# Format: biochemical
# Details: read-out: PDE10 IC50
# Experimental: MPDE10A7 Enzyme Activity and Inhibition
# Enzyme Activity. An IMAP TR-FRET assay was used to analyze the enzyme activity (Molecular Devices Corp., Sunnyvale Calif.). 5 μL, of serial diluted PDE10A (BPS Bioscience, San Diego, Calif.) or tissue homogenate was incubated with equal volumes of diluted fluorescein labeled cAMP or cGMP for 60 min in 384-well polystyrene assay plates (Corning, Corning, N.Y.) at room temperature. After incubation, the reaction was stopped by adding 60 μL, of diluted binding reagents and was incubated for 3 hours to overnight at room temperature. The plates were read on an Envision (Perkin Elmer, Waltham, Mass.) for time resolved fluorescence resonance energy transfer. The data were analyzed with GraphPad Prism (La Jolla, Calif.).
# Enzyme Inhibition. To check the inhibition profile, 5 μL, of serial diluted compounds were incubated with 5 μL, of diluted PDE10 enzyme (BPS Bioscience, San Diego, Calif.) or tissue homogenate in a 384-well polystyrene assay plate (Corning, Corning, N.Y.) for 30 min at room temperature. After incubation, 10 μL, of diluted fluorescein labeled cAMP or cGMP substrate were added and incubated for 60 min at room temperature. The reaction was stopped by adding 60 μL of diluted binding reagents and plates were read on an Envision (Perkin Elmer, Waltham, Mass.) for time resolved fluorescence resonance energy transfer. The data were analyzed with GraphPad Prism (La Jolla, Calif.).
row,IC50,Compound
1,0.916 µM,"CC(=O)N1CCC(c2cccnc2OC2CC(NS(=O)(=O)c3ccc(C)cc3)C2)CC1 [Example 115, N-((1R,3R)-3-((3-(1-acetylpiperidin-4-yl)pyridin-2-yl)oxy)cyclobutyl)-4-methylbenzenesulfonamide]"
2,0.0262 µM,"Clc1ccc(N[C@H]2C[C@@H](Oc3ncccc3C3CCOCC3)C2)nc1 [Example 110, 5-chloro-N-((1S,3S)-3-((3-(tetrahydro-2H-pyran-4-yl)pyridin-2-yl)oxy)cyclobutyl)pyridin-2-amine]"
3,12.4 µM,"CC(=O)N1CCC(c2cccnc2OC2CC(NS(=O)(=O)c3ccc(C)cc3)C2)CC1 [Example 114, N-((1S,3S)-3-((3-(1-acetylpiperidin-4-yl)pyridin-2-yl)oxy)cyclobutyl)-4-methylbenzenesulfonamide]"
4,0.865 µM,"N#Cc1ccc(N[C@H]2C[C@H](Oc3ncccc3C3CCOCC3)C2)nc1 [Example 107, 6-(((1R,3R)-3-((3-(tetrahydro-2H-pyran-4-yl)pyridin-2-yl)oxy)cyclobutyl)amino)nicotinonitrile]"
5,0.000758 µM,"Fc1ccc(C2CCOCC2)c(OC2CC(Nc3nc4ccccc4s3)C2)n1 [Example 105, N-((1S,3S)-3-((6-fluoro-3-(tetrahydro-2H-pyran-4-yl)pyridin-2-yl)oxy)cyclobutyl)benzo[d]thiazol-2-amine]"
6,0.0498 µM,"CN1CCC(c2nccnc2O[C@H]2C[C@@H](Nc3nc4ccccc4s3)C2)CC1 [Example 74, N-((1S,3S)-3-((3-(1-methylpiperidin-4-yl)pyrazin-2-yl)oxy)cyclobutyl)benzo[d]thiazol-2-amine]"
7,0.321 µM,"FC(F)(F)c1ccc(NC2CC(Oc3ncncc3C3CCOCC3)C2)nc1 [Example 117, N-((1S,3S)-3-((5-(tetrahydro-2H-pyran-4-yl)pyrimidin-4-yl)oxy)cyclobutyl)-5-(trifluoromethyl)pyridin-2-amine]"
8,0.106 µM,"FC(F)(F)c1ccc(N[C@H]2C[C@@H](Oc3ncccc3C3CCOCC3)C2)nc1 [Example 109, N-((1S,3S)-3-((3-(tetrahydro-2H-pyran-4-yl)pyridin-2-yl)oxy)cyclobutyl)-5-(trifluoromethyl)pyridin-2-amine]"
9,0.436 µM,"FC(F)(F)c1ccc(N[C@H]2C[C@H](Oc3ncccc3C3CCOCC3)C2)nc1 [Example 108, N-((1R,3R)-3-((3-(tetrahydro-2H-pyran-4-yl)pyridin-2-yl)oxy)cyclobutyl)-5-(trifluoromethyl)pyridin-2-amine]"
10,0.59 µM,"N#Cc1ccc(N[C@H]2C[C@@H](Oc3ncccc3C3CCOCC3)C2)nc1 [Example 106, 6-(((1S,3S)-3-((3-(tetrahydro-2H-pyran-4-yl)pyridin-2-yl)oxy)cyclobutyl)amino)nicotinonitrile]"
11,0.0177 µM,"FC1(F)CCN(c2nccnc2OC2CC(Nc3nc4ccccc4s3)C2)CC1 [Example 99, N-((1S,3S)-3-((3-(4,4-difluoropiperidin-1-yl)pyrazin-2-yl)oxy)cyclobutyl)benzo[d]thiazol-2-amine]"
12,0.959 µM,"FC(F)(F)c1ccc(NC2CC(Oc3ncncc3C3CCOCC3)C2)nc1 [Example 116, N-((1R,3R)-3-((5-(tetrahydro-2H-pyran-4-yl)pyrimidin-4-yl)oxy)cyclobutyl)-5-(trifluoromethyl)pyridin-2-amine]"
13,0.00335 µM,"F[C@H]1CCN(c2nccnc2OC2CC(Nc3nc4ccccc4s3)C2)C1 (stereo partly drawn) [Example 97, N-((1S,3S)-3-((3-(3-fluoropyrrolidin-1-yl)pyrazin-2-yl)oxy)cyclobutyl)benzo[d]thiazol-2-amine]"
14,0.0001 µM,TRANS-BENZOTHIAZOL-2-YL-{3-[5-FLUORO-3-(TETRAHYDRO-PYRAN-4-YL)-PYRIDIN-2-YL]-CYCLOBUTYL}-AMINE [Example 5B]
15,0.0837 µM,"Clc1ccc(N[C@H]2C[C@H](Oc3ncccc3C3CCOCC3)C2)nc1 [Example 111, 5-chloro-N-((1R,3R)-3-((3-(tetrahydro-2H-pyran-4-yl)pyridin-2-yl)oxy)cyclobutyl)pyridin-2-amine]"

row,Compound,IC50
1,"O=C(CO)N1CCC(c2nccnc2OC2CC(Nc3nc4ccccc4s3)C2)CC1 [Example 73, 1-(4-(3-((1S,3S)-3-(benzo[d]thiazol-2-ylamino)cyclobutoxy)pyrazin-2-yl)piperidin-1-yl)-2-hydroxyethanone]",0.00481 µM
2,"O=C1CCN(c2nccnc2OC2CC(Nc3nc4ccccc4s3)C2)CC1 [Example 98, 1-(3-((1S,3S)-3-(benzo[d]thiazol-2-ylamino)cyclobutoxy)pyrazin-2-yl)piperidin-4-one]",0.0211 µM
3,"CC(O)C1CCN(c2nccnc2OC2CC(Nc3nc4ccccc4s3)C2)CC1 [Example 102, 1-(1-(3-((1S,3S)-3-(benzo[d]thiazol-2-ylamino)cyclobutoxy)pyrazin-2-yl)piperidin-4-yl)ethanol]",0.0108 µM

# Same assay, conditions: separated enantiomers; absolute stereochemistry not determined, value can be for either enantiomer of the pair; read-out: IC50
row,Compound,IC50
1,"OC[C@@H]1CCCN(c2nccnc2OC2CC(Nc3nc4ccccc4s3)C2)C1 (stereo partly drawn) [Example 92, ((R)-1-(3-((1S,3S)-3-(benzo[d]thiazol-2-ylamino)cyclobutoxy)pyrazin-2-yl)piperidin-3-yl)methanol]",0.00281 µM
2,"OC[C@H]1CCCN(c2nccnc2OC2CC(Nc3nc4ccccc4s3)C2)C1 (stereo partly drawn) [Example 91, ((S)-1-(3-((1S,3R)-3-(benzo[d]thiazol-2-ylamino)cyclobutoxy)pyrazin-2-yl)piperidin-3-yl)methanol]",0.026 µM
3,"N#C[C@H]1CCN(c2nccnc2OC2CC(Nc3nc4ccccc4s3)C2)C1 (stereo partly drawn) [Example 96, (S)-1-(3-((1S,3R)-3-(benzo[d]thiazol-2-ylamino)cyclobutoxy)pyrazin-2-yl)pyrrolidine-3-carbonitrile]",0.00527 µM
4,"C[C@H]1CCN(c2nccnc2OC2CC(Nc3nc4ccccc4s3)C2)C1 (stereo partly drawn) [Example 93, N-((1S,3S)-3-((3-((R)-3-methylpyrrolidin-1-yl)pyrazin-2-yl)oxy)cyclobutyl)benzo[d]thiazol-2-amine]",0.00324 µM
5,"N#C[C@@H]1CCN(c2nccnc2OC2CC(Nc3nc4ccccc4s3)C2)C1 (stereo partly drawn) [Example 95, (R)-1-(3-((1S,3S)-3-(benzo[d]thiazol-2-ylamino)cyclobutoxy)pyrazin-2-yl)pyrrolidine-3-carbonitrile]",0.000728 µM
6,"C[C@H]1CCN(c2nccnc2OC2CC(Nc3nc4ccccc4s3)C2)C1 (stereo partly drawn) [Example 94, N-((1R,3S)-3-((3-((S)-3-methylpyrrolidin-1-yl)pyrazin-2-yl)oxy)cyclobutyl)benzo[d]thiazol-2-amine]",0.00802 µM
